From patent US20250134874A1, “PHARMACEUTICAL FORMULATIONS COMPRISING 3-({[(4R)-7-{METHYL[4-(PROPAN-2-YL)PHENYL]AMINO}-3,4-DIHYDRO-2H-1-BENZOPYRAN-4-YL]METHYL}AMINO)PYRIDINE-4-CARBOXYLIC ACID” (TACHYON THERAPEUTICS, INC., priority 2021, published 2025)

System: 301 cancer cell lines from different tumor types (OncoPanel; HD Biosciences)
Test: 2D cell viability inhibition assay (CellTiter-Glo) in cancer cell line panel
Type: cell-based
Conditions: Homo sapiens
Description: In a larger screening study, compound 1 was evaluated across a broad cancer cell line panel (OncoPanel; HD Biosciences) composed of 301 cancer cell lines from different tumor types.
2D cell viability inhibition assays were performed in multiwell plates seeded with cells from the panel. After seeding, the plates were cultured overnight in a humidified incubator at 37° C. to promote adherence. Assays were initiated in individual wells by adding either DMSO as a vehicle control, growth media as a blank, or serially diluted compound 1 (10 μM to 0.0005 μM with 1:3 serial dilution). Cultures were incubated for 168 hours after which the number of viable cells in each test well was assessed using the CellTiter-Glo® Luminescent Cell Viability Assay. Luminescence readouts were performed using an EnVision® Multilabel Reader and the compound 1 readouts were normalized to the DMSO control readouts, expressed as a percent of the control. Outliers were flagged out by visual inspection. Percent of control was plotted against the corresponding compound 1 concentration and the absolute IC50 value was determined using four-parameter logistic non-linear regression as the concentration where inhibition was 50% of the control. For maximum inhibition <50%, the absolute IC50 was reported as >10. In addition to EC50 and IC50, AUC was determined and was normalized to the area corresponding to theoretical no-inhibition (the rectangular area defined by the compound dose range and 0 to 100 in y). Emax was recorded as the minimum in y with the compound dose range. For those cell lines where Emax>40, EC50 was manually set to 10 μM. A hierarchical clustering algorithm based on Euclidean distance between the standardized input values and “Ward.D” method as implemented in R hclust function was used to visualize the compound 1 cellular potency data. The sensitive/moderate/resistant calls for each cell line was determined by visually inspecting the resulting clustering dendrogram. All the analyses were done in R Core Team.

SMILES: CC(C)c1ccc(N(C)c2ccc3c(c2)OCC[C@H]3CNc2cnccc2C(=O)O)cc1 [Compound 1, 3-({[(4R)-7-{methyl[4-(propan-2-yl)phenyl]amino}-3,4-dihydro-2H-1-benzopyran-4-yl]methyl}amino)pyridine-4-carboxylic acid]
- EC50 (KYSE-30, KYSE30 cell line): ≥ 10000 nM
- IC50 (KYSE-30, KYSE30 cell line): 2.43 nM
- IC50 (KYSE-70, 168 h, KYSE70, oesophagus, squamous cell carcinoma, 168 hours): > 10000 nM
- EC50 (KYSE-150, KYSE150 cell line): 4.41 nM
- IC50 (KYSE-150, KYSE150 cell line): 5.1 nM
- EC50 (KYSE-270, KYSE270 cell line): 5.11 nM
- IC50 (KYSE-270, KYSE270 cell line): 5.35 nM
- EC50 (KYSE-410, KYSE410 cell line): 5.47 nM
- IC50 (KYSE-410, KYSE410 cell line): 8.25 nM
- EC50 (KYSE-510, KYSE510 cell line): 3.42 nM
- IC50 (KYSE-510, KYSE510 cell line): 3.4 nM
- IC50 (Kasumi 1, 168 h, KASUMI1, haematopoietic and lymphoid tissue, acute myeloid leukaemia, 168 hours): > 10000 nM
- EC50 (LNCaP, LNCAP cell line): 3.54 nM
- IC50 (LNCaP, LNCAP cell line): 4.65 nM
- EC50 (LS-411N, LS411N cell line): 16.8 nM
- IC50 (LS-411N, LS411N cell line): 16.7 nM
- IC50 (LoVo, LOVO cell line): 57.8 nM
- EC50 (Lu-65, LU65 cell line): 7.19 nM
- IC50 (Lu-65, LU65 cell line): 10.6 nM
- IC50 (Lu-99, 168 h, LU99, lung, large cell carcinoma, 168 hours): > 10000 nM
- EC50 (MC116, MC116 cell line): 5.21 nM
- IC50 (MC116, MC116 cell line): 4.6 nM
- IC50 (MCF7, MCF7 cell line): 435 nM
- IC50 (MDA-MB-157, 168 h, MDAMB157, breast, ductal carcinoma, 168 hours): > 10000 nM
- IC50 (MDA-MB-175-VII, 168 h, MDAMB175VII, breast, ductal carcinoma): > 10000 nM
- IC50 (MDA-MB-231, 168 h, MDAMB231, breast, NS, 168 hours): > 10000 nM
- IC50 (MDA-MB-361, 168 h, MDAMB361, breast, NS, 168 hours): > 10000 nM
- IC50 (MDA-MB-415, 168 h, MDAMB415, breast, NS, 168 hours): > 10000 nM
- IC50 (MDA-MB-436, 168 h, MDAMB436, breast, NS, 168 hours): > 10000 nM
- EC50 (MDA-MB-453, MDAMB453 cell line): 8.03 nM
- IC50 (MDA-MB-453, MDAMB453 cell line): 10.4 nM
- IC50 (MDA-MB-468, 168 h, MDAMB468, breast, NS, 168 hours): > 10000 nM
- EC50 (MES-SA, MESSA cell line): 9 nM
- IC50 (MES-SA, MESSA cell line): 14.3 nM
- EC50 (MIA PaCa-2, MIAPACA2 cell line): 5.28 nM
- IC50 (MIA PaCa-2, MIAPACA2 cell line): 7.02 nM
- EC50 (MKN-1, MKN1 cell line): 4.33 nM
- IC50 (MKN-1, MKN1 cell line): 5.75 nM
- EC50 (MKN-45, MKN45 cell line): 11 nM
- IC50 (MKN-45, MKN45 cell line): 13.5 nM
- EC50 (MOLT-4, MOLT4 cell line): 0.508 nM
- IC50 (MOLT-4, MOLT4 cell line): 1.25 nM
- EC50 (MV4-11, MV411 cell line): 3.92 nM
- IC50 (MV4-11, MV411 cell line): 4.02 nM
- IC50 (Malme-3M, 168 h, MALME3M, skin, NS): > 10000 nM
- IC50 (MeWo, 168 h, skin, NS): > 10000 nM
- EC50 (NCI-H23, NCIH23 cell line): 37.7 nM
- IC50 (NCI-H23, NCIH23 cell line): 42.7 nM
- EC50 (NCI-H69, NCIH69 cell line): 7.14 nM
- IC50 (NCI-H69, NCIH69 cell line): 7.09 nM
- EC50 (NCI-H82, NCIH82 cell line): 3.31 nM
- IC50 (NCI-H82, NCIH82 cell line): 3.54 nM
- EC50 (NCI-H209, NCIH209 cell line): 1.48 nM
- IC50 (NCI-H209, NCIH209 cell line): 1.31 nM
- EC50 (NCI-H358, NCIH358 cell line): 3.05 nM
- IC50 (NCI-H358, NCIH358 cell line): 6.57 nM
- IC50 (NCI-H441, 168 h, NCIH441, lung, adenocarcinoma, 168 hours): > 10000 nM
- EC50 (NCI-H446, NCIH446 cell line): 14.5 nM
- IC50 (NCI-H446, NCIH446 cell line): 119 nM
- EC50 (NCI-H460, NCIH460 cell line): 11.1 nM
- IC50 (NCI-H460, NCIH460 cell line): 11.6 nM
- EC50 (NCI-H508, NCIH508 cell line): 9.16 nM
- IC50 (NCI-H508, NCIH508 cell line): 10.2 nM
- EC50 (NCI-H520, NCIH520 cell line): 5.06 nM
- IC50 (NCI-H520, NCIH520 cell line): 5.9 nM
- EC50 (NCI-H522, NCIH522 cell line): 11.5 nM
- IC50 (NCI-H522, NCIH522 cell line): 17.4 nM
- EC50 (NCI-H524, NCIH524 cell line): 4.98 nM
- IC50 (NCI-H524, NCIH524 cell line): 6.85 nM
- IC50 (NCI-H596, 168 h, NCIH596, lung, mixed adenosquamous carcinoma, 168 hours): > 10000 nM
- EC50 (NCI-H647, NCIH647 cell line): 6.04 nM
- IC50 (NCI-H647, NCIH647 cell line): 9.84 nM
- EC50 (NCI-H661, NCIH661 cell line): 9.06 nM
- IC50 (NCI-H661, NCIH661 cell line): 9.73 nM
- EC50 (NCI-H716, NCIH716 cell line): 5.77 nM
- IC50 (NCI-H716, NCIH716 cell line): 9.51 nM
- EC50 (NCI-H929, NCIH929 cell line): 20.6 nM
- IC50 (NCI-H929, NCIH929 cell line): 34.5 nM
- EC50 (NCI-H1048, NCIH1048 cell line): 0.508 nM
- IC50 (NCI-H1048, NCIH1048 cell line): 0.706 nM
- EC50 (NCI-H1092, NCIH1092 cell line): 3.93 nM
- IC50 (NCI-H1092, NCIH1092 cell line): 7.16 nM
- EC50 (NCI-H1155, NCIH1155 cell line): 0.884 nM
- IC50 (NCI-H1155, NCIH1155 cell line): 0.765 nM
- EC50 (NCI-H1299, NCIH1299 cell line): 5.38 nM
- IC50 (NCI-H1299, NCIH1299 cell line): 7.5 nM
- EC50 (NCI-H1355, NCIH1355 cell line): ≥ 10000 nM
- IC50 (NCI-H1355, NCIH1355 cell line): 20.6 nM
- IC50 (NCI-H1395, 168 h, NCIH1395, lung, adenocarcinoma, 168 hours): > 10000 nM
- EC50 (NCI-H1436, NCIH1436 cell line): ≥ 10000 nM
- IC50 (NCI-H1436, NCIH1436 cell line): 8.75 nM
- EC50 (NCI-H1437, NCIH1437 cell line): 9.48 nM
- IC50 (NCI-H1437, NCIH1437 cell line): 13.1 nM
- IC50 (NCI-H1563, 168 h, NCIH1563, lung, adenocarcinoma, 168 hours): > 10000 nM
- IC50 (NCI-H1573, 168 h, NCIH1573, lung, adenocarcinoma, 168 hours): > 10000 nM
- EC50 (NCI-H1623, NCIH1623 cell line): 8.13 nM
- IC50 (NCI-H1623, NCIH1623 cell line): 18.9 nM
- IC50 (NCI-H1650, 168 h, NCIH1650, lung, bronchioloalveolar adenocarcinoma, 168 hours): > 10000 nM
- EC50 (NCI-H1666, NCIH1666 cell line): 0.508 nM
- IC50 (NCI-H1666, NCIH1666 cell line): 1.17 nM
- EC50 (NCI-H1694, NCIH1694 cell line): 0.508 nM
- IC50 (NCI-H1694, NCIH1694 cell line): 1.75 nM
- EC50 (NCI-H1703, NCIH1703 cell line): 4.88 nM
- IC50 (NCI-H1703, NCIH1703 cell line): 8.05 nM
- IC50 (NCI-H1734, NCIH1734 cell line): > 10000 nM
- IC50 (NCI-H1755, 168 h, NCIH1755, lung, adenocarcinoma, 168 hours): > 10000 nM
- EC50 (NCI-H1793, NCIH1793 cell line): 8.36 nM
- IC50 (NCI-H1793, NCIH1793 cell line): 15.3 nM
- EC50 (NCI-H1836, NCIH1836 cell line): 4.88 nM
- IC50 (NCI-H1836, NCIH1836 cell line): 6.07 nM
- IC50 (NCI-H1838, 168 h, NCIH1838, lung, non-small cell carcinoma, 168 hours): > 10000 nM
- EC50 (NCI-H1930, NCIH1930 cell line): 6.62 nM
- IC50 (NCI-H1930, NCIH1930 cell line): 20 nM
